pIC50: −log10 of the molar value. Values joined by “and” are separate entries in the source; they are usually repeats but may differ in a detail not shown here. Identical values can stand only once. Counter-ions that a name gives are not always drawn.
Biological target: Integrin alpha-IIb/beta-3 (Homo sapiens, UniProt P08514+P05106)
Assay: In vitro inhibition of ADP-induced platelet aggregation in human platelet rich plasma (hPRP)

Chain of Integrin alpha-IIb/beta-3 (P05106 27-788 limits assumed): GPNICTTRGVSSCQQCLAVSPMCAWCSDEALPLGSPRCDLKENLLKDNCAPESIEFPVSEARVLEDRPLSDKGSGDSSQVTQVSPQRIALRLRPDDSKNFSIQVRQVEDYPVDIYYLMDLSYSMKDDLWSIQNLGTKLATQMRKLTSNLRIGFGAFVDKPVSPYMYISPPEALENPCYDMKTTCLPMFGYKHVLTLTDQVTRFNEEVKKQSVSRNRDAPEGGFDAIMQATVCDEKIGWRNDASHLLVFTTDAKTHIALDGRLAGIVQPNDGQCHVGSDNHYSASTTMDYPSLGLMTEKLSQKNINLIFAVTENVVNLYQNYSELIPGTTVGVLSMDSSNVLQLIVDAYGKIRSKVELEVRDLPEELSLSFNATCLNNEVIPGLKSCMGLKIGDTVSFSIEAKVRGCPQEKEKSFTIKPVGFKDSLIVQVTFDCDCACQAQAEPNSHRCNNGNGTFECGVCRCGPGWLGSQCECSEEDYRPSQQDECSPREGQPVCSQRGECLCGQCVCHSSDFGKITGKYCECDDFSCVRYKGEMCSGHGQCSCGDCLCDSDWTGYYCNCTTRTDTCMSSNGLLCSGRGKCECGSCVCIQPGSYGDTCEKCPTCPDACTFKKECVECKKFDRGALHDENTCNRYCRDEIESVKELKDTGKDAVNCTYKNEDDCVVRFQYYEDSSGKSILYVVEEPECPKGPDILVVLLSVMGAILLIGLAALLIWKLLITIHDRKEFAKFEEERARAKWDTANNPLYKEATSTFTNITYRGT
Chain of Integrin alpha-IIb/beta-3 (P08514 32-887 limits assumed): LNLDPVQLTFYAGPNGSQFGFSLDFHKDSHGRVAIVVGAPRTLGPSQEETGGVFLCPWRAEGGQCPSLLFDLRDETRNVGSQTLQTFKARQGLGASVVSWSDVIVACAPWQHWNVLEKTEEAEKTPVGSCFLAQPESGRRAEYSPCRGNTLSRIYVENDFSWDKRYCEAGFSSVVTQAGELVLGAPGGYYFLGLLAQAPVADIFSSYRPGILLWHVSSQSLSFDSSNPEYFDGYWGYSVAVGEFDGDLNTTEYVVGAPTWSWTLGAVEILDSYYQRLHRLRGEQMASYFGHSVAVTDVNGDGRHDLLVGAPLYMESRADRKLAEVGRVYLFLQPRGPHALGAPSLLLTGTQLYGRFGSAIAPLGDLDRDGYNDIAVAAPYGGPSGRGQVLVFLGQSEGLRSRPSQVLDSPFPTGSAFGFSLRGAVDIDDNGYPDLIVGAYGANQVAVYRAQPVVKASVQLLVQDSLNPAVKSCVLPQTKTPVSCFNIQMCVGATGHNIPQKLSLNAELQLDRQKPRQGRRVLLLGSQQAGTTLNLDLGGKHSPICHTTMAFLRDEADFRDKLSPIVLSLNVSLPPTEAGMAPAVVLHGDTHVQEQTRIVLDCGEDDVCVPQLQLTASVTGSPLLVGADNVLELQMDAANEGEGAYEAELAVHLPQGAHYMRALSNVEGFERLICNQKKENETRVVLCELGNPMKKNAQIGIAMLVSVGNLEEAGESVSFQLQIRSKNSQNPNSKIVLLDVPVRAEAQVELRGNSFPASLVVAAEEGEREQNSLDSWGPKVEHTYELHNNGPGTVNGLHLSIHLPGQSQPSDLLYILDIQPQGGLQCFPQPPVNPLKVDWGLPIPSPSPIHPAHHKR
Chain of Integrin alpha-IIb/beta-3 (P08514 891-1039 limits assumed): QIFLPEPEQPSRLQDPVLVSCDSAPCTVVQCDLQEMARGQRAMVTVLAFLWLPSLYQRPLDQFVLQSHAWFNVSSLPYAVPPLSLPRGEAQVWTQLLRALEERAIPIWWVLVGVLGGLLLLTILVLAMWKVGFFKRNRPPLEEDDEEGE

Row | pIC50 | Structure (SMILES)
1 | 7.19 | COC(=O)N[C@@H](CNC(=O)CC1CC(c2ccc(C(=N)N)cc2)=NO1)C(=O)O (stereo partly drawn) [(S)-3-{2-[3-(4-Carbamimidoyl-phenyl)-4,5-dihydro-isoxazol-5-yl]-acetylamino}-2-methoxycarbonylamino-propionic acid; TFA]
2 | 6.30 | N=C(N)c1ccc(C2=NOC(CC(=O)N[C@H](CCc3ccncc3)CC(=O)O)C2)cc1 (stereo partly drawn) [(R)-3-{2-[3-(4-Carbamimidoyl-phenyl)-4,5-dihydro-isoxazol-5-yl]-acetylamino}-5-pyridin-4-yl-pentanoic acid; TFA]
3 | 6.89 | CC(C)OC(=O)N[C@@H](CNC(=O)CC1CC(c2ccc(C(=N)N)cc2)=NO1)C(=O)O (stereo partly drawn) [(S)-3-{2-[3-(4-Carbamimidoyl-phenyl)-4,5-dihydro-isoxazol-5-yl]-acetylamino}-2-isopropoxycarbonylamino-propionic acid; TFA]
4 | 6.68 | O=C(CC1CC(CCC2CCNCC2)=NO1)NC[C@H](NC(=O)OCc1ccccc1)C(=O)O (stereo partly drawn) [(S)-2-Benzyloxycarbonylamino-3-{2-[3-(2-piperidin-4-yl-ethyl)-4,5-dihydro-isoxazol-5-yl]-acetylamino}-propionic acid; TFA]
5 | 7.51 | N=C(N)c1ccc(C2=NOC(CC(=O)NC[C@H](NC(=O)OCCC(F)(F)F)C(=O)O)C2)cc1 (stereo partly drawn) [(S)-3-{2-[3-(4-Carbamimidoyl-phenyl)-4,5-dihydro-isoxazol-5-yl]-acetylamino}-2-(3,3,3-trifluoro-propoxycarbonylamino)-propionic acid; TFA]
6 | 7.22 | N=C(N)c1ccc(C2=NO[C@@H](CC(=O)NCCC(=O)O)C2)cc1
7 | 5.85 | N=C(N)c1ccc(C2=NOC(CC(=O)N[C@H](CC(=O)O)Cc3ccccc3)C2)cc1 (stereo partly drawn) [(S)-3-{2-[3-(4-Carbamimidoyl-phenyl)-4,5-dihydro-isoxazol-5-yl]-acetylamino}-4-phenyl-butyric acid; hydrochloride]
8 | 7.02 | N=C(N)c1ccc(C2=NOC(CC(=O)N[C@@H](CC(=O)O)C(=O)NCC34CC5CC(CC(C5)C3)C4)C2)cc1 (stereo partly drawn) [(S)-N-Adamantan-1-ylmethyl-3-{2-[3-(4-carbamimidoyl-phenyl)-4,5-dihydro-isoxazol-5-yl]-acetylamino}-succinamic acid; TFA]
9 | 5.15 | COC(=O)C[C@H](CN(C)C)NC(=O)CC1CC(c2ccc(C(=N)N)cc2)=NO1 (stereo partly drawn) [(R)-3-{2-[3-(4-Carbamimidoyl-phenyl)-4,5-dihydro-isoxazol-5-yl]-acetylamino}-4-dimethylamino-butyric acid methyl ester; TFA]
10 | 7.27 | CC[C@H](CC(=O)O)NC(=O)C[C@H]1CC(c2ccc(C(=N)N)cc2)=NO1 [(R)-3-{2-[(R)-3-(4-Carbamimidoyl-phenyl)-4,5-dihydro-isoxazol-5-yl]-acetylamino}-pentanoic acid; TFA]
11 | 7.31 | CCc1ccc(C(=O)N[C@@H](CNC(=O)CC2CC(c3ccc(C(=N)N)cc3)=NO2)C(=O)O)cc1 (stereo partly drawn) [(S)-3-{2-[3-(4-Carbamimidoyl-phenyl)-4,5-dihydro-isoxazol-5-yl]-acetylamino}-2-(4-ethyl-benzoylamino)-propionic acid; TFA]
12 | 7.30 | COC(=O)C[C@@H](CC(C)C)NC(=O)CC1CC(c2ccc(C(=N)N)cc2)=NO1 (stereo partly drawn) [(R)-3-{2-[3-(4-Carbamimidoyl-phenyl)-4,5-dihydro-isoxazol-5-yl]-acetylamino}-5-methyl-hexanoic acid methyl ester; TFA]
13 | 7.26 | N=C(N)c1ccc(C2=NOC(CC(=O)NC[C@H](NC(=O)OCCc3ccccc3)C(=O)O)C2)cc1 (stereo partly drawn) [(S)-3-{2-[3-(4-Carbamimidoyl-phenyl)-4,5-dihydro-isoxazol-5-yl]-acetylamino}-2-phenethyloxycarbonylamino-propionic acid; TFA]
14 | 7.16 | COC(=O)[C@H](CNC(=O)CC1CC(c2ccc(C(=N)N)cc2)=NO1)NC(=O)Nc1ccccc1 (stereo partly drawn) [(S)-3-{2-[3-(4-Carbamimidoyl-phenyl)-4,5-dihydro-isoxazol-5-yl]-acetylamino}-2-(3-phenyl-ureido)-propionic acid methyl ester; TFA]
15 | 6.77 | N=C(N)c1ccc(C2=NOC(CC(=O)N[C@@H](CC(=O)O)C(=O)N3CCc4ccccc4C3)C2)cc1 (some centres undefined)
16 | 7.51 | N=C(N)c1ccc(C2=NOC(CC(=O)NC[C@H](NC(=O)CCc3ccccc3)C(=O)O)C2)cc1 (stereo partly drawn) [(S)-3-{2-[3-(4-Carbamimidoyl-phenyl)-4,5-dihydro-isoxazol-5-yl]-acetylamino}-2-(3-phenyl-propionylamino)-propionic acid; TFA]
17 | 6.68 | N=C(N)c1ccc(C2=NOC(CC(=O)NC(CC(=O)O)CC(=O)O)C2)cc1 (centres undefined) [3-{2-[3-(4-Carbamimidoyl-phenyl)-4,5-dihydro-isoxazol-5-yl]-acetylamino}-pentanedioic acid; TFA]
18 | 7.17 | N=C(N)c1ccc(C2=NOC(CC(=O)NC[C@H](NC(=O)c3ccc(-c4ccccc4)cc3)C(=O)O)C2)cc1 (stereo partly drawn) [(S)-2-[(Biphenyl-4-carbonyl)-amino]-3-{2-[3-(4-carbamimidoyl-phenyl)-4,5-dihydro-isoxazol-5-yl]-acetylamino}-propionic acid; TFA]
19 | 7.17 | N=C(N)c1ccc(C2=NOC(CC(=O)N[C@@H](CC(=O)O)C(=O)NCCc3ccccc3)C2)cc1 (stereo partly drawn) [(S)-3-{2-[3-(4-Carbamimidoyl-phenyl)-4,5-dihydro-isoxazol-5-yl]-acetylamino}-N-phenethyl-succinamic acid; TFA]
20 | 6.77 | N=C(N)c1ccc(C2=NO[C@@H](CC(=O)N[C@@H](CC(=O)O)c3cccnc3)C2)cc1 [(S)-3-{2-[(R)-3-(4-Carbamimidoyl-phenyl)-4,5-dihydro-isoxazol-5-yl]-acetylamino}-3-pyridin-3-yl-propionic acid; TFA]
21 | 6.44 | N=C(N)c1ccc(C2=NOC(CC(=O)N[C@@H](CC(=O)O)C(=O)N3CCSCC3)C2)cc1 (stereo partly drawn) [(S)-3-{2-[3-(4-Carbamimidoyl-phenyl)-4,5-dihydro-isoxazol-5-yl]-acetylamino}-4-oxo-4-thiomorpholin-4-yl-butyric acid; TFA]
22 | 6.24 | CN(C[C@@H](C(=O)O)N(C)C(=O)OCc1ccccc1)C(=O)CC1CC(c2ccc(C(=N)N)cc2)=NO1 (stereo partly drawn) [(S)-2-(Benzyloxycarbonyl-methyl-amino)-3-({2-[3-(4-carbamimidoyl-phenyl)-4,5-dihydro-isoxazol-5-yl]-acetyl}-methyl-amino)-propionic acid; TFA]

Row | Structure (SMILES) | pIC50
23 | CCCCOC(=O)N[C@@H](CNC(=O)CC1CC(CCC2CCNCC2)=NO1)C(=O)O (stereo partly drawn) [(S)-2-Butoxycarbonylamino-3-{2-[3-(2-piperidin-4-yl-ethyl)-4,5-dihydro-isoxazol-5-yl]-acetylamino}-propionic acid; TFA] | 6.74
24 | CCCCOC(=O)N[C@@H](CNC(=O)CC1CC(CCCC2CCNCC2)=NO1)C(=O)O (stereo partly drawn) [(S)-2-Butoxycarbonylamino-3-{2-[3-(3-piperidin-4-yl-propyl)-4,5-dihydro-isoxazol-5-yl]-acetylamino}-propionic acid; TFA] | 6.74
25 | CCCCOC(=O)N[C@@H](CN(C)C(=O)CC1CC(c2ccc(C(=N)N)cc2)=NO1)C(=O)O (stereo partly drawn) [(S)-2-Butoxycarbonylamino-3-({2-[3-(4-carbamimidoyl-phenyl)-4,5-dihydro-isoxazol-5-yl]-acetyl}-methyl-amino)-propionic acid; TFA] | 6.70
26 | CCCCOC(=O)N[C@@H](CNC(=O)CC1CC(c2ccc(N=C(N)N)cc2)=NO1)C(=O)O (stereo partly drawn) [(S)-2-Butoxycarbonylamino-3-{2-[3-(4-guanidino-phenyl)-4,5-dihydro-isoxazol-5-yl]-acetylamino}-propionic acid] | 7.06
27 | CCCCOC(=O)N[C@@H](CNC(=O)CC1CC(CC2CCNCC2)=NO1)C(=O)O (stereo partly drawn) [(S)-2-Butoxycarbonylamino-3-[2-(3-piperidin-4-ylmethyl-4,5-dihydro-isoxazol-5-yl)-acetylamino]-propionic acid; TFA] | 5.00
28 | CCCCOC(=O)N[C@@H](CNC(=O)CC1CC(c2ccc(C(=N)N)cc2)=NO1)C(=O)O (stereo partly drawn) [(S)-2-Butoxycarbonylamino-3-{2-[3-(4-carbamimidoyl-phenyl)-4,5-dihydro-isoxazol-5-yl]-acetylamino}-propionic acid; TFA] | 7.12 and 7.38
29 | CCCCOC(=O)N[C@@H](CNC(=O)CC1CC(c2ccc(C(=N)N)cc2F)=NO1)C(=O)O (stereo partly drawn) [(S)-2-Butoxycarbonylamino-3-{2-[3-(4-carbamimidoyl-2-fluoro-phenyl)-4,5-dihydro-isoxazol-5-yl]-acetylamino}-propionic acid] | 7.14
